Experimental data taken from US9314468B2, “Chemokine receptor modulators” (Altiris Therapeutics, Inc., priority 2008, dated 2016).

Key:
CXCR4 [1] = target: T1, CXCR4 (Homo sapiens (Human), UniProt P61073); assay: Functional calcium mobilization assay (SDF-1α induced); type: cell-based; details: CEM cells, SDF-1α challenge at EC80-EC90; read-out: Ca Flux IC50
Method: Functional modulation of CXCR4 was determined by calcium mobilization assay using leukemic lymphoid CEM cells, which naturally express high levels of CXCR4. Generally, the assay is carried out as follows: Cells are grown in vitro to confluency. On the day of the assay, cells are removed from the incubator, culture medium removed and replaced with a calcium sensitive dye (Calcium3 assay kit; Molecular Devices, Sunnyvale, Calif.). The cells are allowed to dye load for 45-60 min at 37° C. in the cell culture incubator and then allowed to equilibrate to room temperature for no more than 15 min before assay.
Compound plates were generated containing up to 3% dimethyl sulfoxide in media kept at room temperature. Test compounds were added to the cells at a 1:3 dilution, and calcium mobilization was measured using a Flex Station fluorescence imager (Molecular Devices). This first read was used to determine direct agonist activation of the CXCR4 receptor by the test compounds. […] Full dose response curves were generated daily for SDF-1a to calculate IC50 concentrations. The IC50 values are reported. In cases, where one was not determined, a percent inhibition at the 1 μM concentration was extrapolated.
Functional calcium mobilization assay was conducted as described in Example 27.

CXCR4 [2] = target: T1, CXCR4; assay: Cellular impedance change induced by SDF-1a (cellular dielectric spectroscopy); type: cell-based; details: HeLa cells, endogenous CXCR4, EC50 concentration of SDF-1a, 30 minutes; read-out: Antagonist IC50
Method: This assay measures the change in impedance that occurs when cells are stimulated with SDF-1a. Changes in shape and cytoskeleton result in a change of impedance that is dependent on the activation of the CXCR4 receptor. This assay is contracted to MDS Pharma Services and performed as described in http://discovery.mdsps.com/Catalog/Services/Screening/CellKey/AssayDetails.aspx?id=7 (Assay 930070). Briefly, human HeLa cells expressing endogenous CXCR4 are grown in vitro and receptor activation in live cells is measured using cellular dielectric spectroscopy (CDS).

T1 sequence (P61073 whole entry): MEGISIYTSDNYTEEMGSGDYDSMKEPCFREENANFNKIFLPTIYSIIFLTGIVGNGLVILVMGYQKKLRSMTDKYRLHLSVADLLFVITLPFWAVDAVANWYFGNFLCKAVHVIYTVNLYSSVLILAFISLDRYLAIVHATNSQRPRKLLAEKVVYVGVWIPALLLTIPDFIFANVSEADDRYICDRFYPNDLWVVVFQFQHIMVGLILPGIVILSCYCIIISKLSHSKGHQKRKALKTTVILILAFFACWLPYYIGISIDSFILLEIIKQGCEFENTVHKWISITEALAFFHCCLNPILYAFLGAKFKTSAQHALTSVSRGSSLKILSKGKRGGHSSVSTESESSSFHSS

Row | Compound | IC50 (CXCR4 [1]) [µM] | IC50 (CXCR4 [2]) [µM]
1 | Cn1c(CN(CCCCN)C2CCCc3cccnc32)nnc1-c1ccccc1 (stereo not shown) | 3.2 | –
2 | c1cnc2c(c1)CCCC2N(CCCCNC1=NCCN1)Cc1nccc2c1[nH]c1ccccc12 (stereo not shown) | 1.67 | –
3 | NCCCCN(Cc1nccc2c1[nH]c1cc(F)ccc12)C1CCCc2cccnc21 (stereo not shown) | 0.565 | –
4 | c1cnc2c(c1)CCCC2N(CCCCNCC1CC1)Cc1nccc2c1[nH]c1ccccc12 (stereo not shown) | 0.729 | –
5 | CCNCCCCN(Cc1nccc2c1[nH]c1ccccc12)C1CCCc2cccnc21 (stereo not shown) | 0.168 | –
6 | CN(C)C(=O)NCCCCN(Cc1nccc2c1[nH]c1ccccc12)C1CCCc2cccnc21 (stereo not shown) | 0.038 | –
7 | CC(=O)NCCCCN(Cc1nccc2c1[nH]c1ccccc12)C1CCCc2cccnc21 (stereo not shown) | 1.72 | –
8 | CS(=O)(=O)N1CCN(CCN(Cc2nccc3c2[nH]c2ccccc23)C2CCCc3cccnc32)CC1 (stereo not shown) | 10 | –
9 | NCCCCN(Cc1cc2c(cn1)[nH]c1ccccc12)C1CCCc2cccnc21 (stereo not shown) | 0.069 | –
10 | Cn1c2ccccc2c2ccnc(CN(CCCCN)C3CCCc4cccnc43)c21 (stereo not shown) | 0.01 | –
11 | c1cnc2c(c1)CCCC2N(CCCN1CCNCC1)Cc1nccc2c1[nH]c1ccccc12 (stereo not shown) | 0.018 | –
12 | CC(C)(C)C(=O)N1CCN(CCCN(Cc2nccc3c2[nH]c2ccccc23)C2CCCc3cccnc32)CC1 (stereo not shown) | 1.93 | –
13 | c1cnc2c(c1)CCCC2N(CCCCN1CCNCC1)Cc1nccc2c1[nH]c1ccccc12 (stereo not shown) | 1.96 | –
14 | Cn1c2ccccc2c2ccnc(CN(CCCCN)[C@H]3CCCc4cccnc43)c21 | 0.022 | –
15 | CCNCCCCN(Cc1nccc2c1[nH]c1ccccc12)[C@H]1CCCc2cccnc21 | 0.699 | –
16 | c1cnc2c(c1)CCC[C@@H]2N(CCCCNCC1CC1)Cc1nccc2c1[nH]c1ccccc12 | 0.451 | –
17 | c1cnc2c(c1)CCC[C@@H]2N(CCCN1CCNCC1)Cc1nccc2c1[nH]c1ccccc12 | 0.087 | –
18 | NCCCCN(Cc1nccc2c1[nH]c1ccccc12)[C@H]1CCCc2cccnc21 | 0.03 | –
19 | NCCCCN(Cc1nccc2c1[nH]c1ccccc12)[C@@H]1CCCc2cccnc21 | 1.34 | –
20 | NCCCCN(Cc1cc2c(cn1)[nH]c1ccccc12)[C@@H]1CCCc2cccnc21 | 1.18 | –
21 | NCCCCN(Cc1cc2c(cn1)[nH]c1ccccc12)[C@H]1CCCc2cccnc21 | 0.1 | –
22 | CC(C)(C)OC(=O)Cn1c2ccccc2c2ccnc(CN[C@H]3CCCc4cccnc43)c21 | 2.81 | –

Row | Compound | IC50 (CXCR4 [1]) [µM] | IC50 (CXCR4 [2]) [µM]
23 | CC(C)(C)OC(=O)Cn1c2ccccc2c2ccnc(CN(CCCCN)[C@H]3CCCc4cccnc43)c21 | 0.001 | –
24 | c1cnc2c(c1)CCC[C@@H]2N(Cc1nccc2c1[nH]c1ccccc12)CC1CCCNC1 (stereo partly shown) | 3.6 | –
25 | NCCCCN(Cc1nccc2c3ccccc3n(CCCN3CCNC(=O)C3)c12)[C@H]1CCCc2cccnc21 | 0.004 | –
26 | O=C1CN(CCCN(Cc2nccc3c4ccccc4n(CCCN4C(=O)c5ccccc5C4=O)c23)[C@H]2CCCc3cccnc32)CCN1 | 0.138 | –
27 | Cc1cccnc1CN(CCCCN)Cc1nccc2c3ccccc3n(CC(=O)N3CCOCC3)c12 | 0.583 | –
28 | O=C1c2ccccc2C(=O)N1CCCn1c2ccccc2c2ccnc(CN(CCCN3CCNCC3)[C@H]3CCCc4cccnc43)c21 | 0.044 | –
29 | NCCCCN(Cc1nccc2c3ccccc3n(CCCN3CCNCC3=O)c12)[C@H]1CCCc2cccnc21 | 0.02 | –
30 | O=C1CNCCN1CCCn1c2ccccc2c2ccnc(CN(CCCN3CCNCC3)[C@H]3CCCc4cccnc43)c21 | 0.044 | –
31 | NCCCn1c2ccccc2c2ccnc(CN(CCCN3CCNCC3)[C@H]3CCCc4cccnc43)c21 | 0.005 | –
32 | COCCn1c2ccccc2c2ccnc(CN(CCCCN)[C@H]3CCCc4cccnc43)c21 | 0.02 | –
33 | NCCCCN(Cc1nccc2c3ccccc3n(CC3CC3)c12)[C@H]1CCCc2cccnc21 | 0.004 | –
34 | c1cnc2c(c1)CCC[C@@H]2N(CCCN1CCNCC1)Cc1nccc2c3ccccc3n(CC3CC3)c12 | 0.014 | –
35 | COCCn1c2ccccc2c2ccnc(CN(CCCN3CCNCC3)[C@H]3CCCc4cccnc43)c21 | 0.049 | –
36 | c1cnc2c(c1)CCC[C@@H]2N(CCCN1CCNCC1)Cc1nccc2c3ccccc3n(CCC3CCOCC3)c12 | 0.001 | –
37 | CC(c1ccccn1)N(CCCCN)Cc1nccc2c3ccccc3n(CC(=O)N3CCOCC3)c12 (stereo not shown) | 0.423 | –
38 | NCCCCN(Cc1nccc2c3ccccc3n(CCCN)c12)C1CCCc2cccnc21 (stereo not shown) | – | 0.0073
39 | NCCCCN(Cc1nccc2c3ccccc3n(CCCN3CCNCC3)c12)C1CCCc2cccnc21 (stereo not shown) | – | 0.0083
40 | NCCCCN(Cc1nccc2c1[nH]c1ccccc12)C1CCCc2cccnc21 (stereo not shown) [drawing 654] | 0.142 | –
41 | NCCCCN(Cc1nccc2c3ccccc3n(CC(=O)O)c12)[C@H]1CCCc2cccnc21 [drawing 709] | 0.022 | –
42 | NCCCCN(Cc1nccc2c3ccccc3n(CCCN3CCNCC3)c12)[C@H]1CCCc2cccnc21 [drawing 723] | 0.015 | –
43 | CC(C)(C)OC(=O)Cn1c2ccccc2c2ccnc(CN(CCCN3CCNCC3)[C@H]3CCCc4cccnc43)c21 [drawing 743] | 0.059 | –
44 | NCCCCN(Cc1nccc2c3ccccc3n(CCCN)c12)[C@H]1CCCc2cccnc21 [drawing 748] | 0.021 | –

The next lines start with the values.

Row | IC50 (CXCR4 [1]) [µM] | IC50 (CXCR4 [2]) [µM] | Compound
45 | 0.176 | – | c1ccc(Cn2c3ccccc3c3ccnc(CN(CCCN4CCNCC4)[C@H]4CCCc5cccnc54)c32)nc1
46 | 0.021 | – | NCCCCN(Cc1nccc2c3ccccc3n(CC(=O)NC3CCOCC3)c12)[C@H]1CCCc2cccnc21
47 | 8.65 | – | O=C(Cn1c2ccccc2c2ccnc(CN(CCCCNCc3ccccn3)[C@H]3CCCc4cccnc43)c21)N1CCOCC1
48 | 0.628 | – | CN1CCN(CCCN(Cc2nccc3c4ccccc4n(CC(=O)N4CCOCC4)c23)[C@H]2CCCc3cccnc32)CC1
49 | 1.4 | – | O=C(Cn1c2ccccc2c2ccnc(CN(CCCCNCc3cccnc3)[C@H]3CCCc4cccnc43)c21)N1CCOCC1
50 | 2.83 | – | O=C(Cn1c2ccccc2c2ccnc(CN(CCCCNCc3ccncc3)[C@H]3CCCc4cccnc43)c21)N1CCOCC1
51 | 0.013 | – | NCCCCN(Cc1nccc2c3ccccc3n(CCC3CCOCC3)c12)[C@H]1CCCc2cccnc21
52 | 0.078 | – | NCCCCN(Cc1nccc2c3ccccc3n(CC(=O)N3CCSCC3)c12)[C@H]1CCCc2cccnc21
53 | 0.047 | – | NCCCCN(Cc1nccc2c3ccccc3n(Cc3ccccc3)c12)[C@H]1CCCc2cccnc21
54 | 8.72 | – | O=C1CN(CCCN(Cc2nccc3c4ccccc4n(CC(=O)N4CCOCC4)c23)[C@H]2CCCc3cccnc32)CCN1
55 | 0.026 | – | O=C(Cn1c2ccccc2c2ccnc(CN(CCCN3CCNCC3)[C@H]3CCCc4cccnc43)c21)NC1CCOCC1
56 | 0.27 | – | NCCCCN(Cc1nccc2c3ccccc3n(CC(=O)N3CCCCC3)c12)[C@H]1CCCc2cccnc21
57 | 0.405 | – | O=C(Cn1c2ccccc2c2ccnc(CN(CCCN3CCNCC3)[C@H]3CCCc4cccnc43)c21)N1CCCCC1
58 | 0.152 | – | c1ccc(Cn2c3ccccc3c3ccnc(CN(CCCN4CCNCC4)[C@H]4CCCc5cccnc54)c32)cc1
59 | 0.124 | – | O=C(Cn1c2ccccc2c2ccnc(CN(CCCC3CCNCC3)[C@H]3CCCc4cccnc43)c21)N1CCOCC1
60 | 0.03 | – | NCCCn1c2ccccc2c2ccnc(CN(CCCN3CCNC(=O)C3)[C@H]3CCCc4cccnc43)c21

Row | IC50 (CXCR4 [1]) [µM] | IC50 (CXCR4 [2]) [µM] | Compound
61 | 2.15 | – | N[C@H]1CC[C@H](CN(Cc2nccc3c4ccccc4n(CC(=O)N4CCOCC4)c23)[C@H]2CCCc3cccnc32)CC1
62 | 1.26 | – | N[C@H]1CC[C@@H](CN(Cc2nccc3c4ccccc4n(CC(=O)N4CCOCC4)c23)[C@H]2CCCc3cccnc32)CC1
63 | 0.009 | – | NC(=O)Cn1c2ccccc2c2ccnc(CN(CCCN3CCNCC3)[C@H]3CCCc4cccnc43)c21
64 | – | 0.0058 | NCCCCN(Cc1nccc2c3ccccc3n(CC(N)=O)c12)C1CCCc2cccnc21 (stereo not shown)
65 | – | 0.0077 | NCCCCN(Cc1nccc2c3ccccc3n(CCN3CCOCC3)c12)C1CCCc2cccnc21 (stereo not shown)
66 | – | 0.0099 | C[C@@H]1CN(C(=O)Cn2c3ccccc3c3ccnc(CN(CCCCN)C4CCCc5cccnc54)c32)C[C@H](C)O1 (stereo partly shown)
67 | – | 0.011 | CN1CCN(C(=O)Cn2c3ccccc3c3ccnc(CN(CCCCN)C4CCCc5cccnc54)c32)CC1 (stereo not shown)
68 | – | 0.012 | NCCCCN(Cc1nccc2c3ccccc3n(CC(=O)N3CCC(O)CC3)c12)C1CCCc2cccnc21 (stereo not shown)
69 | – | 0.015 | O=C(Cn1c2ccccc2c2ccnc(CN(CCCN3CCNCC3)C3CCCc4cccnc43)c21)N1CCOCC1 (stereo not shown)
70 | – | 0.026 | O=C(O)Cn1c2ccccc2c2ccnc(CN(CCCN3CCNCC3)C3CCCc4cccnc43)c21 (stereo not shown)
71 | 0.079 | – | NCCCCN(Cc1nccc2c3ccccc3n(CC(=O)N3CCOCC3)c12)[C@H]1CCCc2cccnc21 [drawing 701]
72 | 0.03 | – | CN1CCN(C(=O)Cn2c3ccccc3c3ccnc(CN(CCCCN)[C@H]4CCCc5cccnc54)c32)CC1 [drawing 725]
73 | 0.123 | – | C[C@@H]1CN(C(=O)Cn2c3ccccc3c3ccnc(CN(CCCCN)[C@H]4CCCc5cccnc54)c32)C[C@H](C)O1 [drawing 744]
74 | 0.135 | – | O=C(O)Cn1c2ccccc2c2ccnc(CN(CCCN3CCNCC3)[C@H]3CCCc4cccnc43)c21 [drawing 753]
75 | 0.063 | – | NCCCCN(Cc1nccc2c3ccccc3n(CCN3CCNCC3)c12)[C@H]1CCCc2cccnc21 [drawing 754]
76 | 0.017 | – | NCCCCN(Cc1nccc2c3ccccc3n(CC(N)=O)c12)[C@H]1CCCc2cccnc21 [drawing 765]
